# Measured values from US20260001928A1 (CORTERIA PHARMACEUTICALS, priority 2022, published 2026).
# *1 amine or outer side, *2 acyl side, *3 side chain or, on linkers, in order; H or OH if unused. Where a SMILES comes first, the peptide text is derived from it. Side-chain parts run from the residue outwards. [ ]: non-standard residue; d: D form. The star is where a group is joined. C18 diacid = O=C(O)CCCCCCCCCCCCCCCCC(=O)*; C16 diacid = O=C(O)CCCCCCCCCCCCCCC(=O)*; γGlu = O=C(O)[C@H](CCC(=O)[*:2])N[*:1]; Pentanoyl = CCCCC(=O)*; AEEA = NCCOCCOCC(=O)O; Ac3c = NC1(C(=O)O)CC1; Aib = CC(C)(N)C(=O)O
# Assays:
# [1] = In vitro subcutaneous tissue supernatant (SCts) stability and metabolite identification, rat; assay type: in vitro ADME; parameters: remaining at 2 h: dose or concentration left out as unconfirmed; details: for remaining at 2 h: male, Sprague Dawley, rat subcutaneous tissue supernatant (SCts), 37° C
# Experimental: In vitro metabolic stability in subcutaneous tissue supernatant (SCts) was studied in male Sprague Dawley rats. Test compounds were incubated […] for 2 hours at 37° C.
# Software aided in vitro metabolite identification on SCts stability samples was performed using either Metabolite Pilot (Sciex) or Biopharma Finder (Thermo). In addition, metabolite identification using Metabolite Pilot was performed on plasma samples of Comp Y following SC administration to rat at 1 mg/kg.
# human CRF2a receptor = molecular target: T1, human CRF2a receptor (Homo sapiens, UniProt Q13324); assay: Activity at human CRF2a receptor, cAMP functional assay in TeloHEAC cells; assay type: cell-based; details: TeloHEAC cells stably expressing human CRF2a receptor, relative to urocortin 2 (100 nM = 100%)
# T1 construct: expressed in transfected cells; host or cells: TeloHEAC cells
# T1 sequence (Q13324 1-411): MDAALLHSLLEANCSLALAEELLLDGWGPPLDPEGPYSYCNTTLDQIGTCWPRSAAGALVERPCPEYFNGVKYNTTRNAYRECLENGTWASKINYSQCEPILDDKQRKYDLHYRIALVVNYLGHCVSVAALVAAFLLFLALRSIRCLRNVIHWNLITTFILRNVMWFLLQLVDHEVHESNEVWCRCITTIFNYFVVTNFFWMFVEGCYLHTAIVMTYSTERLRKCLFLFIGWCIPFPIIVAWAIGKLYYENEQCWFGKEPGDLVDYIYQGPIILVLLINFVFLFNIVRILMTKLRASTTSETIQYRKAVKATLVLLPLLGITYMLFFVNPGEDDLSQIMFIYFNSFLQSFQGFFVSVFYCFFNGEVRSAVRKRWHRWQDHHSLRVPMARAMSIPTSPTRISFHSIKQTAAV
# Summary of the method: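 TeloHEAC cells stably expressing human CRF2a (10000 cells/well, suspended in HBSS/20 mM HEPES with 2 mM IBMX) were exposed to compounds for 30 min at 37 °C. cAMP was read as the 665/620 nm fluorescence ratio after 1 h at room temperature. EC50 was derived relative to 100 nM urocortin 2, set as 100%.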
# CFR1R receptor = molecular target: T2, CFR1R receptor (Homo sapiens, UniProt P34998); assay: Activity at anti-target CFR1R receptor, cAMP assay in CRF1R-overexpression CHO-K1 cells; assay type: cell-based; details: 100% = Sauvagine at 100 nM; for EC50: cAMP
# T2 construct: host or cells: CHO-K1 (clone 2)
# T2 sequence (P34998 24-415): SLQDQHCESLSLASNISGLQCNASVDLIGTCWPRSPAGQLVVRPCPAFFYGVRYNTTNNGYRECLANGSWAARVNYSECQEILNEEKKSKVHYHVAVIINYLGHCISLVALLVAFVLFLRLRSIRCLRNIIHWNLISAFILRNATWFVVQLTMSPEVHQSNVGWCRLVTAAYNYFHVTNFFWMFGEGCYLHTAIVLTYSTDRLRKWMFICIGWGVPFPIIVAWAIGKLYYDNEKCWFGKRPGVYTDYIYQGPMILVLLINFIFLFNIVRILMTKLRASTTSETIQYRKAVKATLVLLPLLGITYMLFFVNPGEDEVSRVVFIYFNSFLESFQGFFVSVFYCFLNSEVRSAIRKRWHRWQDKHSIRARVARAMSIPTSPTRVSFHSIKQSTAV
# Summary of the method: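 Uses frozen stocks of CHO-K1 clone 2 cells overexpressing human CRF1R, plated at 4000 cells/well final, with cAMP measured by the same protocol as the TeloHAEC line. Full-activation control: 100 nM Sauvagine.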
# [2] = Chemical stability in buffer (pH 7.4 / pH 4.5), % purity loss; assay type: physicochemical; details: 40° C. vs 5° C., 14 or 28 days; for Buffer stability pH 7.4 % purity loss: 100 mM phosphate buffer pH 7.4
# Summary of the method: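 LC-UV gave % loss after 14 or 28 days of storage at 5 °C or 40 °C. Samples were diluted supernatants from compound incubated 1 h at room temperature at 10 mg/mL target, in 100 mM acetate pH 4.5 or 100 mM phosphate pH 7.4.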
"major metabolic soft spot, in vitro ([1]; in vitro soft spot identification, rat SCts)",remaining at 2 h [1] [%],EC50 (human CRF2a receptor) [nM],Emax (% I) (CFR1R receptor),EC50 (CFR1R receptor) [nM],Buffer stability pH 4.5 % purity loss ([2]; 100 mM acetate buffer pH 4.5) [%],Buffer stability pH 7.4 % purity loss [2],Structure (SMILES)
N-terminus,,,,,,,"CC[C@H](C)[C@H](N)C(=O)N[C@H](C(=O)N[C@@H](CC(C)C)C(=O)N[C@@H](CO)C(=O)N[C@@H](CC(C)C)C(=O)N[C@@H](CC(=O)O)C(=O)N[C@@H](C(=O)N1CCC[C@H]1C(=O)N[C@H](C(=O)N[C@@H](CCCCN)C(=O)N[C@@H](CC(C)C)C(=O)N[C@@H](CCCCNC(=O)CC[C@H](NC(=O)CCCCCCCCCCCCCCC(=O)O)C(=O)O)C(=O)N[C@@H](CCC(N)=O)C(=O)N[C@H](C(=O)N[C@@H](CC(C)C)C(=O)N[C@@H](CC(C)C)C(=O)N[C@@H](CCCCN)C(=O)N[C@@H](CCC(N)=O)C(=O)N[C@@H](CCC(=O)O)C(=O)N[C@@H](CCCNC(=N)N)C(=O)N[C@@H](CCC(N)=O)C(=O)N[C@@H](CCCCN)C(=O)N[C@@H](CCCCN)C(=O)N[C@@H](CCC(N)=O)C(=O)N[C@@H](CCCNC(=N)N)C(=O)N[C@@H](CCC(=O)O)C(=O)N[C@@H](CCC(N)=O)C(=O)N[C@@H](C)C(=O)N[C@@H](CCC(=O)O)C(=O)N[C@@H](CCCCN)C(=O)N[C@@H](CC(N)=O)C(=O)N[C@@H](CCCCN)C(=O)N[C@@H](CCC(N)=O)C(=O)N[C@H](C(=O)N[C@@H](CC(C)C)C(=O)N[C@@H](CCC(=O)O)C(=O)N[C@@H](CCC(N)=O)C(=O)N[C@H](C(N)=O)C(C)C)[C@@H](C)CC)[C@@H](C)CC)[C@@H](C)CC)C(C)C)C(C)C [SEQ ID No. 151, reference compound] (H-IVLSLD[dV]PIKLK([γGlu-C16 diacid])QILLKQERQKKQREQAEKNKQILEQV-NH2)"
,77,5.76,6,> 250,,,CCCCC(=O)N[C@H](C(=O)N[C@@H](CC(C)C)C(=O)N[C@@H](CO)C(=O)N[C@@H](CC(C)C)C(=O)N[C@@H](CC(=O)O)C(=O)N[C@@H](C(=O)N1CCC[C@H]1C(=O)N[C@H](C(=O)N[C@@H](CCCCN)C(=O)N[C@@H](CC(C)C)C(=O)N[C@@H](CCCCNC(=O)COCCOCCNC(=O)COCCOCCNC(=O)CC[C@H](NC(=O)CCCCCCCCCCCCCCCCC(=O)O)C(=O)O)C(=O)N[C@@H](CCCCN)C(=O)N[C@H](C(=O)N[C@@H](CC(C)C)C(=O)N[C@@H](CC(C)C)C(=O)N[C@@H](CCC(=O)O)C(=O)N[C@@H](CCC(N)=O)C(=O)N[C@@H](CCC(=O)O)C(=O)N[C@@H](CCCCN)C(=O)N[C@@H](CCC(N)=O)C(=O)N[C@@H](CCCCN)C(=O)N[C@@H](CCCCN)C(=O)N[C@@H](CCC(N)=O)C(=O)N[C@@H](CCCNC(=N)N)C(=O)N[C@@H](CCC(=O)O)C(=O)N[C@@H](CCC(N)=O)C(=O)N[C@@H](C)C(=O)N[C@@H](CCC(=O)O)C(=O)N[C@H](C(=O)N[C@@H](CC(N)=O)C(=O)N[C@H](C(=O)N[C@@H](CCC(N)=O)C(=O)N[C@H](C(=O)N[C@@H](CC(C)C)C(=O)N[C@@H](C)C(=O)N[C@@H](CCC(N)=O)C(=O)N[C@H](C(N)=O)C(C)C)[C@@H](C)CC)C(C)C)[C@@H](C)O)[C@@H](C)CC)[C@@H](C)CC)C(C)C)C(C)C [compound 121] (Pentanoyl-VLSLD[dV]PIKLK([AEEA-AEEA-γGlu-C18 diacid])KILLEQEKQKKQREQAETNVQILAQV-NH2)
,78,0.16,5,> 250,0.0,24.3%,CC[C@H](C)[C@H](NC(C)=O)C(=O)N[C@H](C(=O)N[C@@H](CC(C)C)C(=O)N[C@@H](CO)C(=O)N[C@@H](CC(C)C)C(=O)N[C@@H](CC(=O)O)C(=O)N[C@@H](C(=O)N1CCC[C@H]1C(=O)N[C@H](C(=O)N[C@@H](CCCCN)C(=O)N[C@@H](CC(C)C)C(=O)N[C@@H](CCCCNC(=O)CC[C@H](NC(=O)CCCCCCCCCCCCCCCCC(=O)O)C(=O)O)C(=O)N[C@@H](CCCCN)C(=O)N[C@H](C(=O)N[C@@H](CC(C)C)C(=O)N[C@@H](CC(C)C)C(=O)N[C@@H](CCC(=O)O)C(=O)N[C@@H](CCC(N)=O)C(=O)N[C@@H](CCC(=O)O)C(=O)N[C@@H](CCCCN)C(=O)N[C@@H](CCC(N)=O)C(=O)N[C@@H](CCCCN)C(=O)N[C@@H](CCCCN)C(=O)N[C@@H](CCC(N)=O)C(=O)N[C@@H](CCCNC(=N)N)C(=O)N[C@@H](CCC(=O)O)C(=O)N[C@@H](CCC(N)=O)C(=O)N[C@@H](C)C(=O)N[C@@H](CCC(=O)O)C(=O)N[C@H](C(=O)N[C@@H](CC(N)=O)C(=O)NC1(C(=O)N[C@@H](CCC(N)=O)C(=O)N[C@H](C(=O)N[C@@H](CC(C)C)C(=O)N[C@@H](C)C(=O)N[C@@H](CCC(N)=O)C(=O)N[C@H](C(N)=O)C(C)C)[C@@H](C)CC)CC1)[C@@H](C)O)[C@@H](C)CC)[C@@H](C)CC)C(C)C)C(C)C [compound 136] (Ac-IVLSLD[dV]PIKLK([γGlu-C18 diacid])KILLEQEKQKKQREQAETN[Ac3c]QILAQV-NH2)
,59,0.32,3,> 250,,0.6/Not Tested %,CC[C@H](C)[C@H](NC(C)=O)C(=O)N[C@H](C(=O)N[C@@H](CC(C)C)C(=O)N[C@@H](CO)C(=O)N[C@@H](CC(C)C)C(=O)N[C@@H](CC(=O)O)C(=O)N[C@@H](C(=O)N1CCC[C@H]1C(=O)N[C@H](C(=O)N[C@@H](CCCCN)C(=O)N[C@@H](CC(C)C)C(=O)N[C@@H](CCCCNC(=O)CC[C@H](NC(=O)CCCCCCCCCCCCCCC(=O)O)C(=O)O)C(=O)N[C@@H](CCCCN)C(=O)N[C@H](C(=O)N[C@@H](CC(C)C)C(=O)N[C@@H](CC(C)C)C(=O)N[C@@H](CCC(=O)O)C(=O)N[C@@H](CCC(N)=O)C(=O)N[C@@H](CCC(=O)O)C(=O)N[C@@H](CCCCN)C(=O)N[C@@H](CCC(N)=O)C(=O)N[C@@H](CCCCN)C(=O)N[C@@H](C)C(=O)N[C@@H](CCC(N)=O)C(=O)N[C@@H](CCCNC(=N)N)C(=O)N[C@@H](CCC(=O)O)C(=O)N[C@@H](CCC(N)=O)C(=O)N[C@@H](C)C(=O)N[C@@H](CCC(=O)O)C(=O)N[C@H](C(=O)N[C@@H](CC(N)=O)C(=O)NC(C)(C)C(=O)N[C@@H](CCC(N)=O)C(=O)N[C@H](C(=O)N[C@@H](CC(C)C)C(=O)N[C@@H](C)C(=O)N[C@@H](CCC(N)=O)C(=O)N[C@H](C(N)=O)C(C)C)[C@@H](C)CC)[C@@H](C)O)[C@@H](C)CC)[C@@H](C)CC)C(C)C)C(C)C [compound 161] (Ac-IVLSLD[dV]PIKLK([γGlu-C16 diacid])KILLEQEKQKAQREQAETN[Aib]QILAQV-NH2)
